Data reported in patent publication US20080280996A1, “Use of Carophyllenes in the Manufacture of Medicaments and Treatment of Bodily Conditions of Inflammation and Inflammatory Pain” (priority 2004, published 2008).

Test system: carrageenin-induced inflammatory nociception in the hind paw
Assay: Inflammatory nociception induced by carrageenin (von Frey filament)
Type: in vivo
Conditions: mice, carrageenin 300 μg per paw intraplantar; alpha-humulene 50 mg/kg orally or paracetamol 600 mg/kg orally, 1 h before; evaluated after 3, 4 and 6 hours
Protocol: The evaluation methodology used in this test is described by Vaz et al. in J. Pharmacol. Exp. Ther. 278:304-312, 1996. Male mice (25-35 g) were systemically (orally) treated with alpha-humulene, 50 mg/kg, administered 1 hour before the experiment. Animals treated with 0.9% saline solution (0.1 ml/10 g) were used as the control. Another group of animals was treated with paracetamol (600 mg/kg, orally, administered 1 h before the treatment), that was used as positive control. For the induction of inflammatory pain, the animals received an intraplantar injection of 0.05 ml of carrageenin (300 μg per paw) at the plantar surface of the right hind paw. […] The nociception was evaluated with a Von Frey filament (0.4 g) after 3, 4 and 6 hours. […] The filament was applied to the right hind paw, complying with the criteria of (1) the application was perpendicular to the plantar surface, with enough pressure to cause the filament to bend, thus obtaining total pressure; (2) the animals were evaluated when the four paws were touching the screen; (3) the paw withdrawal response was considered when the animal removed the paw entirely from the support screen; (4) each animal was stimulated 10 consecutive times, each stimulation lasting 1 second; (5) each paw withdrawal event was considered as 10% of the response, with 10 withdrawal events corresponding to 100% response. […]

## C/C1=C\CC/C(C)=C/CC(C)(C)/C=C/C1 [alpha-humulene]
  inflammatory nociception (paw withdrawal response to 0.4 g von Frey filament): reduced the inflammatory nociception
